Test results from ChEMBL document CHEMBL5528030, “Discovery of Natural Ah Receptor Antagonists from Salvia miltiorrhiza Bunge and Synthesis of Analogs for Tumor Immunotherapy” (J Med Chem, 2024).

What was measured:
B16-F10 = assay: animal or person; conditions: Mus musculus, B16-F10, 360 h, read-out: TGI
Description: Antitumor activity against mouse B16-F10 cells xenografted in C57BL/6 mouse assessed as inhibition of tumor growth at 100 mg/kg, ip administered once a week and measured for 15 days

[1] = molecular target: T1, Aryl hydrocarbon receptor (Mus musculus, UniProt P30561); assay: Antagonist activity at AhR receptor in kynurenine-stimulated mouse B16-F10 cells assessed as decrease in IDO-1 gene expression at 10 to 30 uM measured after 48 hrs by RT-qPCR analysis; format: cell-based; conditions: b16-f10, 48 h, dose 10-30 µM
T1 sequence (P30561 whole entry): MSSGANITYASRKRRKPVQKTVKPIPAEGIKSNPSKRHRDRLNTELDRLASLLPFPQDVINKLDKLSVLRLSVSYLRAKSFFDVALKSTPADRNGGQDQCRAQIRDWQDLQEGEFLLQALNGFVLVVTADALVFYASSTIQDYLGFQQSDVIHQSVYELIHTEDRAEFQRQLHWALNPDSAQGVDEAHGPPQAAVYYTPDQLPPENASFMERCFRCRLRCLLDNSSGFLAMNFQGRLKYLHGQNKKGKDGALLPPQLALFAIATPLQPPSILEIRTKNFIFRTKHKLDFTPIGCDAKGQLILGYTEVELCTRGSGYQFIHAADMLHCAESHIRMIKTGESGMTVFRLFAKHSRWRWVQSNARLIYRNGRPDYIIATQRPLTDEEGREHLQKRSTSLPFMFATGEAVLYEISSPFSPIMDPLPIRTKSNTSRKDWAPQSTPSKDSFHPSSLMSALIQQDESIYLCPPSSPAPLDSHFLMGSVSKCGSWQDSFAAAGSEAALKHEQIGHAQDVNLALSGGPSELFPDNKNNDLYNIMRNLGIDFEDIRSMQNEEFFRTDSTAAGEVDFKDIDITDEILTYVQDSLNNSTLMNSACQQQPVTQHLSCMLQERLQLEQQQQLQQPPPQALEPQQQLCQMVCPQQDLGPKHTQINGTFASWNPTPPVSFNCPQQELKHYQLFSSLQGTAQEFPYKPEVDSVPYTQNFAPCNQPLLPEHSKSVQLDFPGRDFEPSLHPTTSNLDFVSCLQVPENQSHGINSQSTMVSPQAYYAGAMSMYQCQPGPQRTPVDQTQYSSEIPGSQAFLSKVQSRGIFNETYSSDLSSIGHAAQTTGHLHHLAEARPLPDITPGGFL

[2] = molecular target: T1, Aryl hydrocarbon receptor; assay: Antagonist activity at AhR receptor in mouse B16-F10 cells assessed as inhibition of kynurenine-induced receptor nuclear translocation by measuring increase in receptor level in cytoplasm at 10 to 30 uM measured after 72 hrs by Hoechst staining based immunofluorescence analysis; format: cell-based; conditions: b16-f10, 72 h, dose 10-30 µM
[3] = molecular target: T1, Aryl hydrocarbon receptor; assay: Antagonist activity at AhR receptor in kynurenine-stimulated mouse B16-F10 cells assessed as decrease in AhRR gene expression at 10 to 30 uM measured after 24 hrs by RT-qPCR analysis; format: cell-based; conditions: b16-f10, 24 h, dose 10-30 µM
[4] = molecular target: T1, Aryl hydrocarbon receptor; assay: Antagonist activity at AhR receptor in mouse B16-F10 cells assessed as inhibition of kynurenine-induced receptor nuclear translocation by measuring increase in receptor level in cytoplasm at 30 uM measured after 24 hrs by western blot analysis; format: subcellular; conditions: b16-f10, 24 h
[5] = molecular target: T1, Aryl hydrocarbon receptor; assay: Antagonist activity at AhR receptor in kynurenine-stimulated mouse B16-F10 cells assessed as decrease in IL-6 gene expression at 10 to 30 uM measured after 24 hrs by RT-qPCR analysis; format: cell-based; conditions: b16-f10, 24 h, dose 10-30 µM
[6] = molecular target: T1, Aryl hydrocarbon receptor; assay: Antagonist activity at AhR receptor in mouse B16-F10 cells assessed as inhibition of kynurenine-induced receptor nuclear translocation by measuring decrease in receptor level in nucleus at 10 to 30 uM measured after 72 hrs by Hoechst staining based immunofluorescence analysis; format: cell-based; conditions: b16-f10, 72 h, dose 10-30 µM
[7] = molecular target: T1, Aryl hydrocarbon receptor; assay: Antagonist activity at AhR receptor in mouse B16-F10 cells assessed as inhibition of kynurenine-induced receptor nuclear translocation by measuring decrease in receptor level in nucleus at 30 uM measured after 24 hrs by western blot analysis; format: subcellular; conditions: b16-f10, 24 h
[8] = Toxicity against C57BL/6 mouse xenografted with mouse B16-F10 cells assessed as change in body weight at 0.3 to 1 mg/kg, po administered daily and measured for 15 days; format: organism-based; conditions: in vivo, 360 h, dose 0.3-1 mg/kg, time 15 day

inhibition (INH) [1] | inhibition (INH) [2] | inhibition (INH) [3] | inhibition (INH) [4] | inhibition (INH) [5] | inhibition (INH) [6] | inhibition (INH) [7] | Compound | inhibition in vivo at 100 mg/kg (B16-F10) [%] | Activity [8]
– | – | – | – | – | – | – | O=P1(N(CCCl)CCCl)NCCCO1 (centres undefined) [CYCLOPHOSPHAMIDE ANHYDROUS] | 92.2 | –
Active | Active | Active | Active | Active | Active | Active | CC(=O)OC1Oc2c(C(C)C)cc3ccc4c(C)c(C)ccc4c3c2OC1c1ccccc1 (racemic) | – | Non-Toxic
